Experimental findings from patent publication US20120157452A1, “1H-PYRAZOLO[3,4-B] PYRIDINE COMPOUNDS FOR INHIBITING RAF KINASE” (GENENTECH, INC., priority 2009, published 2012) are described below.

The target of one experiment is T1, V600E full-length B-Raf (Homo sapiens, UniProt P15056, V600E).
T1 construct: made in house; host or cells: Sf9 insect cells (baculovirus)
Briefly: B-Raf IC50 assay: incorporation of radio labeled phosphate from [γ-33P]ATP into FSBA-modified wild-type MEK. It counts as biochemical. The source says: Determining the activity of Raf in the sample is possible by a number of direct and indirect detection methods (US 2004/0082014). Activity of human recombinant B-Raf protein may be assessed in vitro by assay of the incorporation of radio labeled phosphate to recombinant MAP kinase (MEK), a known physiologic substrate of B-Raf, according to US 2004/0127496 and WO 03/022840. The activity/inhibition of V600E full-length B-Raf was estimated by measuring the incorporation of radio labeled phosphate from [γ-^33]ATP into FSBA-modified wild-type MEK (see Biological Example 1).
Activity of human recombinant B-Raf protein may be assessed in vitro by assay of the incorporation of radio labeled phosphate to recombinant MAP kinase (MEK), a known physiologic substrate of B-Raf, according to US 2004/0127496 and WO 03/022840. Catalytically active human recombinant B-Raf protein is obtained by purification from sf9 insect cells infected with a human B-Raf recombinant baculovirus expression vector.
The activity/inhibition of V600E full-length B-Raf was estimated by measuring the incorporation of radio labeled phosphate from [γ-^33]ATP into FSBA-modified wild-type MEK. The 30-μL, assay mixtures contained 25 mM Na Pipes, pH 7.2, 100 mM KCl, 10 mM MgCl2, 5 mM β-glycerophosphate, 100 μM Na Vanadate, 4 μM ATP, 500 nCi [γ-^33P]ATP, 1 μM FSBA-MEK and 20 nM V600E full-length B-Raf. Incubations were carried out at 22° C. in a Costar 3365 plate (Corning). Prior to the assay, the B-Raf and FSBA-MEK were preincubated together in assay buffer at 1.5× (20 μL of 30 nM and 1.5 μM, respectively) for 15 minutes, and the assay was initiated by the addition of 10 μL of […]. Following the 60-minute incubation, the assay mixtures were quenched by the addition of 100 μL of 25% TCA, the plate was mixed on a rotary shaker for 1 minute, and the product was captured on a Perkin-Elmer GF/B filter plate using a Tomtec Mach III Harvester. After sealing the bottom of the plate, 35 μL of Bio-Safe II (Research Products International) scintillation cocktail were added to each well and the plate was top-sealed and counted in a Topcount NXT (Packard).

For the next experiment, the system named is LOX xenografts. Description: Tumor Growth Inhibition (LOX) in nude mice with subcutaneous LOX xenografts. It counts as in vivo. The following applies: female nude mice, subcutaneous LOX xenograft, 30 mg/kg PO on days 1, 2, 3 and 4. As for the experimental part: Female nude mice were implanted subcutaneously on the right flank with approximately 3.5×10^6 LOX cells in 100 μL PBS. Five to seven days later, tumors were measured and mice were randomized into groups of six with average tumor volume in each group of approximately 200 mm^3. Examples 30 and 42 were dissolved in 80% PEG400/20% ethanol before dosing, and administered PO at a volume of 5 mL/kg. Dosing was vehicle alone on days 1, 2, 3 and 4; and Examples 30 and 42 at 30 mg/kg on days 1, 2, 3 and 4 Animal weights and tumor volumes were measured using electronic calipers on […]. Tumor volume was calculated using the formula: volume=(width^2×length)/2. Each Example was run in a separate study with its own vehicle comparison.

Setting [1] is: 4 μM ATP, 60-minute incubation, representative data of multiple tests.

T1 sequence (P15056 whole entry V600E): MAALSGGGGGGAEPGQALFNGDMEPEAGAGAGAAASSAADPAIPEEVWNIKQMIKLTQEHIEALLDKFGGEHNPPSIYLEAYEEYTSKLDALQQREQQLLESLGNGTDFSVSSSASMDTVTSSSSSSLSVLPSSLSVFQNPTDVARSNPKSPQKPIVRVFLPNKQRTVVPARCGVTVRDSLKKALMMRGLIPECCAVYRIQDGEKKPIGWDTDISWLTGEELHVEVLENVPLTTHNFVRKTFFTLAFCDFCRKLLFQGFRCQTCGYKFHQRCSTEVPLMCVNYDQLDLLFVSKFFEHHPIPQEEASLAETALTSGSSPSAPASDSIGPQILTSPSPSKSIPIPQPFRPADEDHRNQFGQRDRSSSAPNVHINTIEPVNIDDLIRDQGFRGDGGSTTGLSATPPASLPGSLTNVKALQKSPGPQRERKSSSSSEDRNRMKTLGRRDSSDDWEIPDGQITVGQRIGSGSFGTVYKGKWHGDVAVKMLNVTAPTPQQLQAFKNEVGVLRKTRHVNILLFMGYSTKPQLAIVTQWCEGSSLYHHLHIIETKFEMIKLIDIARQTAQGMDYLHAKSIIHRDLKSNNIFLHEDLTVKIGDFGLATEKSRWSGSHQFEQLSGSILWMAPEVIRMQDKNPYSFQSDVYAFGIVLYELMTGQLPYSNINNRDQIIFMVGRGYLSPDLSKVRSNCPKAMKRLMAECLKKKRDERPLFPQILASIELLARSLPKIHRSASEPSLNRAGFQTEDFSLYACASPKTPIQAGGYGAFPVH

In general, IC50 refers to the concentration that inhibits the measured activity by half. A low value points to higher potency. As for `COc1n[nH]c2ncc(NC(=O)c3c(Cl)ccc(OCc4ccc(C(F)(F)F)cn4)c3F)cc12` [Example 42, 6-chloro-2-fluoro-N-(3-methoxy-1H-pyrazolo[3,4-b]pyridin-5-yl)-3-((5-(trifluoromethyl)pyridin-2-yl)methoxy)benzamide], the IC50 on V600E full-length B-Raf (setting [1]) was 0.00176 µM; at V600E full-length B-Raf (bound stated) it was under 0.1 µM. The “Tumor Volume (mm^3) Day 1” value in the experiment on LOX xenografts (Day 1) was 191.22 mm^3. The “Tumor Volume (mm^3) Day 3” value with LOX xenografts (Day 3) is given as 214.61 mm^3. Moreover, in the experiment with LOX xenografts (Day 5), the “Tumor Volume (mm^3) Day 5” value is listed as 161.55 mm^3.
For the molecule `COc1n[nH]c2ncc(NC(=O)c3c(Cl)ccc(OCc4cccc(C)n4)c3F)cc12` [Example 38, 6-chloro-2-fluoro-N-(3-methoxy-1H-pyrazolo[3,4-b]pyridin-5-yl)-3-((6-methylpyridin-2-yl)methoxy)benzamide], the IC50 is 0.0151 µM on V600E full-length B-Raf (setting [1]) and under 0.1 µM against V600E full-length B-Raf (bound stated).
On to `COc1n[nH]c2ncc(NC(=O)c3c(Cl)ccc(OCc4ccc(CN5CCOCC5)cc4)c3F)cc12` [Example 75, 6-chloro-2-fluoro-N-(3-methoxy-1H-pyrazolo[3,4-b]pyridin-5-yl)-3-(4-(morpholinomethyl)benzyloxy)benzamide], for which the IC50 was 0.139 µM at V600E full-length B-Raf (setting [1]) and under 0.5 µM against V600E full-length B-Raf (bound stated).
Regarding `COc1ccc(COc2ccc(Cl)c(C(=O)Nc3cnc4[nH]nc(OC)c4c3)c2F)cc1` [Example 56, 6-chloro-2-fluoro-N-(3-methoxy-1H-pyrazolo[3,4-b]pyridin-5-yl)-3-(4-methoxy-benzyloxy)benzamide], the IC50 at V600E full-length B-Raf (setting [1]) was 0.00131 µM; at V600E full-length B-Raf (bound stated), under 0.1 µM.
`COc1n[nH]c2ncc(NC(=O)c3c(Cl)ccc(OCc4ccc(F)cc4F)c3F)cc12` [Example 62, 6-chloro-3-(2,4-difluorobenzyloxy)-2-fluoro-N-(3-methoxy-1H-pyrazolo[3,4-b]pyridin-5-yl)benzamide]: the IC50 against V600E full-length B-Raf (setting [1]) was 0.00145 µM; at V600E full-length B-Raf (bound stated) it was under 0.1 µM.
On the same counts, the results for `COc1n[nH]c2ncc(NC(=O)c3c(Cl)ccc(OCc4ccc(C(F)(F)F)cc4)c3F)cc12` [Example 19, 6-chloro-2-fluoro-N-(3-methoxy-1H-pyrazolo[3,4-b]pyridin-5-yl)-3-(4-(trifluoromethyl)benzyloxy)benzamide] are 0.00204 µM and under 0.1 µM.
On to `COc1n[nH]c2ncc(NC(=O)c3c(Cl)ccc(OCc4ncccn4)c3F)cc12` [Example 41, 6-chloro-2-fluoro-N-(3-methoxy-1H-pyrazolo[3,4-b]pyridin-5-yl)-3-(pyrimidin-2-ylmethoxy)benzamide], for which the values for the concentration for half-maximal inhibition (IC50) against V600E full-length B-Raf (setting [1]) and on V600E full-length B-Raf (bound stated) were 0.152 µM and under 0.5 µM, respectively.
For the molecule `COc1n[nH]c2ncc(NC(=O)c3c(Cl)ccc(OCc4cnccn4)c3F)cc12` [Example 57, 6-chloro-2-fluoro-N-(3-methoxy-1H-pyrazolo[3,4-b]pyridin-5-yl)-3-(pyrazin-2-ylmethoxy)benzamide], the IC50 against V600E full-length B-Raf (setting [1]) was 0.026 µM; against V600E full-length B-Raf (bound stated) it was under 0.1 µM.
With `COc1n[nH]c2ncc(NC(=O)c3c(C)ccc(OCc4ccc(F)cc4)c3F)cc12` [Example 71, 2-fluoro-3-(4-fluorobenzyloxy)-N-(3-methoxy-1H-pyrazolo[3,4-b]pyridin-5-yl)-6-methylbenzamide], the IC50 at V600E full-length B-Raf (setting [1]) is 0.00066 µM; at V600E full-length B-Raf (bound stated) it was under 0.1 µM.
`COc1n[nH]c2ncc(NC(=O)c3c(Cl)ccc(OCc4ccc(C)cc4)c3F)cc12` [Example 31, 6-chloro-2-fluoro-N-(3-methoxy-1H-pyrazolo[3,4-b]pyridin-5-yl)-3-(4-methyl-benzyloxy)benzamide]: the IC50 on V600E full-length B-Raf (setting [1]) is 0.00056 µM; on V600E full-length B-Raf (bound stated), under 0.1 µM.
As for `O=C(Nc1cnc2[nH]nc(C3CC3)c2c1)c1c(Cl)ccc(OCc2ccccc2)c1F` [Example 35, 3-(benzyloxy)-6-chloro-N-(3-cyclopropyl-1H-pyrazolo[3,4-b]pyridin-5-yl)-2-fluorobenzamide], the results for the IC50 against V600E full-length B-Raf (setting [1]) and against V600E full-length B-Raf (bound stated) were 0.0021 µM and under 0.1 µM, respectively.
`COc1n[nH]c2ncc(NC(=O)c3c(Cl)ccc(OCc4ccc(I)cc4)c3F)cc12` [Example 47, 6-chloro-2-fluoro-3-(4-iodobenzyloxy)-N-(3-methoxy-1H-pyrazolo[3,4-b]pyridin-5-yl)benzamide]: the IC50 is 0.00414 µM at V600E full-length B-Raf (setting [1]) and under 0.1 µM against V600E full-length B-Raf (bound stated).
On to `COc1n[nH]c2ncc(NC(=O)c3c(Cl)ccc(OCc4ccccc4)c3F)cc12` [Example 4, 3-(benzyloxy)-6-chloro-2-fluoro-N-(3-methoxy-1H-pyrazolo[3,4-b]pyridin-5-yl)benzamide], for which the results for the IC50 against V600E full-length B-Raf (setting [1]) and against V600E full-length B-Raf (bound stated) were 0.00062 µM and under 0.1 µM, respectively.
Turning to `COc1n[nH]c2ncc(NC(=O)c3c(Cl)ccc(OCc4ccn(C)n4)c3F)cc12` [Example 58, 6-chloro-2-fluoro-N-(3-methoxy-1H-pyrazolo[3,4-b]pyridin-5-yl)-3-((1-methyl-1H-pyrazolo-3-yl)methoxy)benzamide], the IC50 against V600E full-length B-Raf (setting [1]) was 0.0371 µM; against V600E full-length B-Raf (bound stated), under 0.1 µM.
The like results for `COc1n[nH]c2ncc(NC(=O)c3c(Cl)ccc(OCc4ccc(F)cc4)c3F)cc12` [Example 29, 6-chloro-2-fluoro-3-(4-fluorobenzyloxy)-N-(3-methoxy-1H-pyrazolo[3,4-b]pyridin-5-yl)benzamide] were, in that order, 0.00065 µM and under 0.1 µM.
On the same counts, the results for `CSc1n[nH]c2ncc(NC(=O)c3c(Cl)ccc(OCc4ccccc4)c3F)cc12` [Example 12, 3-(benzyloxy)-6-chloro-2-fluoro-N-(3-(methylthio)-1H-pyrazolo[3,4-b]pyridin-5-yl)benzamide] are 0.00185 µM and under 0.1 µM.
Turning to `Cc1n[nH]c2ncc(NC(=O)c3c(Cl)ccc(OCc4ccccc4)c3F)cc12` [Example 34, 3-(benzyloxy)-6-chloro-2-fluoro-N-(3-methyl-1H-pyrazolo[3,4-b]pyridin-5-yl)benzamide], the IC50 against V600E full-length B-Raf (setting [1]) was 0.00483 µM; on V600E full-length B-Raf (bound stated), under 0.1 µM.
For `COc1n[nH]c2ncc(NC(=O)c3c(Cl)ccc(OCc4ccc(S(C)(=O)=O)cc4)c3F)cc12` [Example 49], the IC50 is 0.00391 µM against V600E full-length B-Raf (setting [1]) and under 0.1 µM against V600E full-length B-Raf (bound stated).
Turning to `COc1n[nH]c2ncc(NC(=O)c3c(Cl)ccc(OCc4ccc(C)nc4)c3F)cc12` [Example 46, 6-chloro-2-fluoro-N-(3-methoxy-1H-pyrazolo[3,4-b]pyridin-5-yl)-3-((6-methylpyridin-3-yl)methoxy)benzamide], the values for the IC50 on V600E full-length B-Raf (setting [1]) and on V600E full-length B-Raf (bound stated) were 0.00609 µM and under 0.1 µM, respectively.
With `COc1n[nH]c2ncc(NC(=O)c3c(C)ccc(OCc4ccccc4)c3F)cc12` [Example 5, 3-(benzyloxy)-2-fluoro-N-(3-methoxy-1H-pyrazolo[3,4-b]pyridin-5-yl)-6-methylbenzamide], the figures for the IC50 against V600E full-length B-Raf (setting [1]) and against V600E full-length B-Raf (bound stated) were 0.00106 µM and under 0.1 µM, respectively.
The like results for `CNc1n[nH]c2ncc(NC(=O)c3c(Cl)ccc(OCc4ccccc4)c3F)cc12` [Example 11, 3-benzyloxy-6-chloro-2-fluoro-N-(3-(methylamino)-1H-pyrazolo[3,4-b]pyridin-5-yl)benzamide] were, in that order, 0.00703 µM and under 0.1 µM.
The like results for `COc1n[nH]c2ncc(NC(=O)c3cccc(OCc4ccccc4)c3)cc12` [Example 1, 3-(benzyloxy)-N-(3-methoxy-1H-pyrazolo[3,4-b]pyridin-5-yl)benzamide] were, in that order, 0.429 µM and under 0.5 µM.
As to `COc1n[nH]c2ncc(NC(=O)c3c(Cl)ccc(OCc4cscn4)c3F)cc12` [Example 37, 6-chloro-2-fluoro-N-(3-methoxy-1H-pyrazolo[3,4-b]pyridin-5-yl)-3-(thiazol-4-ylmethoxy)benzamide], the values for the IC50 against V600E full-length B-Raf (setting [1]) and against V600E full-length B-Raf (bound stated) were 0.0038 µM and under 0.1 µM, respectively.
